Results from US8338420B1, “Treatment of Parkinson's disease and enhancement of dopamine signal using PDE 10 inhibitor” (Mitsubishi Tanabe Pharma Corporation, priority 2002, dated 2012).
pIC50: −log10 of the molar value.

Experiments:
PDE9 (PDE9A) = biological target: T1, PDE9 (PDE9A) (Homo sapiens, UniProt O76083); assay: PDE assay, recombinant human PDE9A; type: biochemical; conditions: substrate about 12 nM [3H]-cGMP and 0.1 μM cGMP
T1 construct: FLAG (pFLAG-CMV-2) (N); made in house; host or cells: COS-7 cells, 100,000 x g supernatant of the sonicate, not purified
T1 sequence (O76083 whole entry): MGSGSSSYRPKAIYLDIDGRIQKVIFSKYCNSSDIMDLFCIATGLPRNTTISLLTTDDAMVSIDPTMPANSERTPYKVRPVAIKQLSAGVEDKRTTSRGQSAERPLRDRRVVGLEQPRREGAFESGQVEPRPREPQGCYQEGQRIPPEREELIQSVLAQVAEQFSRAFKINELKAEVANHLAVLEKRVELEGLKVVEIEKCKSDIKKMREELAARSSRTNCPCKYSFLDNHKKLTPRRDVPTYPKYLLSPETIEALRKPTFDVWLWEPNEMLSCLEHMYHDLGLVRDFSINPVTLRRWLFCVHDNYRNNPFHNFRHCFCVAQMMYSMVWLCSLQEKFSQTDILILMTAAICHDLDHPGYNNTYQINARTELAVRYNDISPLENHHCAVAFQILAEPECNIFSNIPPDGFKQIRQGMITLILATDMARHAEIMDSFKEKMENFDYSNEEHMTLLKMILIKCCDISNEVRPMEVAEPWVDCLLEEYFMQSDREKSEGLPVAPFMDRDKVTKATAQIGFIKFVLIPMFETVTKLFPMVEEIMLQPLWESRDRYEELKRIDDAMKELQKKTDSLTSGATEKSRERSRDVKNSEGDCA
Experimental: Based on the information of cDNA sequence of human PDE9A (Genbank/EMBL Accession No. AF048837) (Fisher et al., J. Biol. Chem., 1998, vol. 273, pp. 15559-15564, […]), a cDNA encoding human PDE9A was cloned by PCR method. Using this cDNA, a recombinant protein of human PDE9A was prepared as follows.
A DNA fragment comprising a cDNA encoding human PDE9A was linked to pFLAG-CMV-2 (available from Kodak), to give a vector plasmid for expression of human PDE9A, with a flag tag peptide added to the N-terminus. COS-7 cells were transfected by these vector plasmids, and the cells were cultured in Dulbecco's modified Eagle medium containing 10% bovine fetal serum for about 24 to 48 hours. After incubation, the cells were collected, and washed with Phosphate buffered saline, and re-suspended in a solution buffer (20 mM Tris-HCl, pH7.5, 2 mM magnesium acetate, 0.3 mM calcium chloride, 1 mM dithiothreitol, 1.3 mM benzamidine). The cells were homogenized by ultrasonic treatment, and subjected to centrifugation (100,000×g, 4° C., 1 hour) to collect a supernatant.
This supernatant containing the recombinant human PDE9A was used for PDE assay as a PDE9 (PDE9A) enzyme solution. […]

PDE2 = biological target: T2, PDE2 (Bos taurus, UniProt P14099); assay: PDE assay, PDE2 enzyme solution from bovine adrenal gland; type: biochemical, Japanese Black Cattle; conditions: substrate about 12 nM [3H]-cGMP and 1 μM cGMP
T2 construct: tissue Tokyo Shibaura Zoki; host or cells: bovine adrenal gland, soluble fraction, ion-exchange fractions
T2 sequence (P14099 1-921): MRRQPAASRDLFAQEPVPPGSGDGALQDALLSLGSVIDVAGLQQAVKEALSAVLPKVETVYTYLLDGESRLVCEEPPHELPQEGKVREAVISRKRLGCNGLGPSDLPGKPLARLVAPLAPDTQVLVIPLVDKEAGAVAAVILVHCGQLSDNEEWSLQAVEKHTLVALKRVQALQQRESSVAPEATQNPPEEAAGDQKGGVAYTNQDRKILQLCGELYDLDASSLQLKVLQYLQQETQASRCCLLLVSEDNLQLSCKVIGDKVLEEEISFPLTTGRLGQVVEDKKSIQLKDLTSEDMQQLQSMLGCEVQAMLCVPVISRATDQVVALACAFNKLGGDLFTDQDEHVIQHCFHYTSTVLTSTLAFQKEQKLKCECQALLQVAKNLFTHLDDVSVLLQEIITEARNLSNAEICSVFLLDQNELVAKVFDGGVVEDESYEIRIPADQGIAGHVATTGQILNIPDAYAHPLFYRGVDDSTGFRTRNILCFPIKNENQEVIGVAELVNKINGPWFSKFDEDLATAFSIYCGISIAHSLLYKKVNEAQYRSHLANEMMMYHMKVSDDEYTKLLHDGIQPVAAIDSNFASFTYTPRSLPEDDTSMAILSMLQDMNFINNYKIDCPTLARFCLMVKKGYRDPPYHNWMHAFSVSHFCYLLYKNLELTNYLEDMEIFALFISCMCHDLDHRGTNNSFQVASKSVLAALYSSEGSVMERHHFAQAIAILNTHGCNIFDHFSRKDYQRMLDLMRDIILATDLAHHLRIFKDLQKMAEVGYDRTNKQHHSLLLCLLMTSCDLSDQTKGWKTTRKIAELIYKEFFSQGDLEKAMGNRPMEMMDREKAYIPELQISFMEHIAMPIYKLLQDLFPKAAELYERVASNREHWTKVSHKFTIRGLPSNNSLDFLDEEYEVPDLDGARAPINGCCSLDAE
Experimental: One adrenal gland of Japanese Black Cattle, purchased from Tokyo Shibaura Zoki, co., Ltd. was washed with 100 ml of ice-cold saline (0.9% sodium chloride) twice. Subsequently, the tissues were cut into about 1 gram, and it was frozen by liquid nitrogen. To about 2 g of this tissue sample was added 10 ml of an ice-cold homogenization buffer II (25 mM Tris-HCl, pH 7.5, 4 mM magnesium chloride, 0.5 mM EGTA, 2 mM dithiothreitol, 4 mM benzamidine, 0.1 mM phenylmethylsulfonyl fluoride), and the homogenate that was homogenized by Polytron homogenizer for 3 minutes was centrifuged at 8000 rpm, at 4° C. for 20 minutes, and the obtained supernatant was further centrifuged by an ultracentrifuge at 50000 rpm, at 4° C. for 60 minutes. The resultant supernatant was stored at 4° C.
This supernatant was applied to chromatography under the FPLC system, in the same manner as in Example 1 (1) above. […]
Subsequently, the eluted fractions were used as an enzyme solution for PDE assay, and cGMP-hydrolyzing activity was measured. Or, cAMP-hydrolyzing activity was measured for respective fractions, in the presence or absence of unlabeled cGMP. […]

pIC50 (PDE9 (PDE9A)): < 6.00 | pIC50 (PDE2): < 6.00
SMILES: COc1ccc(-c2cc(N3CCCC3)nc(/C=C/c3nc(-n4ccnc4)c4ccccc4n3)n2)cc1OC [Compound A, 2-{(E)-2-[4-(1-imidazolyl)-quinazolin-2-yl]}ethenyl-4-(3,4-dimethoxy)phenyl-6-(pyrrolidin-1-yl)pyrimidine]
